{
  "source": "patent US9447083B2",
  "about": "“N-acylhydrazone derivatives for selective T cell inhibitor and anti-lymphoid malignancy drug” (CHONG KUN DANG PHARMACEUTICAL CORP., priority 2012, dated 2016)",
  "key": {"[1]": {"test_system": "alloantigen-specific T cells", "test": "Inhibitory effect on alloantigen-specific T cells in vivo (donor T cells in spleen of irradiated BDF1 mice)", "design": "species or system mouse", "settings": "for number of alloantigen-specific T cells in the spleen: compared to vehicle, concentration-dependent", "description": "Lymph nodes and spleens were aseptically collected from normal C57BL/6-Ly5.1 mice (8-12 week old, female, 20±2 g), and T cells were isolated in the same manner as described in Experimental Example 2, and were then re-suspended in PBS at a concentration of 1×10^8 cells/mL. Normal BDF1 mice (10-12 week old, female, 20-23 g) were irradiated with 950 rad of γ radiation, and then 100 μL of the above-prepared T cells of C57BL/6-Ly5.1 mice were injected into the tail vein of the BDF1 mice. Compound 229 was completely dissolved in a Cremophor EL (Sigma)/ethanol mixture (1:1, v/v) in an amount corresponding to 15% (v/v) of the administration volume for intraperitoneal administration and in an amount corresponding to 7.5% (v/v) for oral administration, and the compound solution was diluted in PBS. The dilution was administered intraperitoneally (200 μL/mouse) or orally (500 μL/mouse) every day for 5 days from the day of the cell injection. A vehicle control group was administered with a Cremophor EL-ethanol-PBS mixture in the same ratio and volume as those of the test group. At 6 days after the cell injection, the mice were sacrificed, the spleens were collected from the mice, and erythrocyte-free spleen cells were made in the same manner as described in Experimental Example 2. The spleen cells were stained with trypan blue, and the number of viable cells per organ of each animal was counted. Then, the spleen cells were put into 5 mL FACS tubes and washed with 1 mL of FACS buffer. The cells were re-suspended in 0.1 mL of FACS buffer, and then treated with […] of mouse immunoglobulin G in order to prevent the non-specific binding of antibody, followed by incubation at 4° C. for 15 minutes. […] The stained cells were washed twice with 1 mL of FACS buffer, re-suspended in 0.3 mL of FACS buffer and analyzed by a flow cytometer. The number of donor T cells in the spleen was determined by measuring the ratio (%) of a donor T cell fraction (Ly5.1^+ cells) relative to viable cells per spleen."}, "[2]": {"test_system": "alloantigen-specific T cells", "test": "Inhibitory effect against alloantigen-specific T cells in vitro (mixed lymphocyte reaction, CFSE / 7-AAD)", "assay_type": "cell-based, mouse", "settings": "for Apoptosis % (mean ± SD) Primary Response / Apoptosis % (mean ± SD) Secondary Response: 72 hours; for Apoptosis % (mean ± SD) Primary Response: vehicle 30.91 ± 3.80; for Apoptosis % (mean ± SD) Secondary Response: vehicle 39.10 ± 4.10", "description": "The lymph nodes and spleens were aseptically collected from normal C57BL/6 mice (8-12 week old, female, 20±2 g) and were ground with adding of RPMI medium. Then, the ground tissues were passed through a cell strainer (BD Falcon) to make single cell suspensions. The single cell suspension of the spleen was centrifuged at 1200 rpm for 5 minutes. The supernatant was removed, and then 1 mL of ammonium chloride/potassium bicarbonate (ACK) lysis buffer (0.15 M NH4Cl, 1 mM KHCO3, 0.1 mM Na2EDTA) was added to the cells, which were then vortexed for 1 minute and washed with RPMI medium. […] The incubated cell suspension was added with 10 mL of MACS buffer, centrifuged for 5 minutes, washed, and then re-suspended in 2 mL of MACS buffer. The suspended cells were placed in the autoMACS Pro Separator (Miltenyi Biotec), and T cells bound to CD90.2 microbeads were isolated. The isolated T cells were washed with phosphate buffered saline (PBS), and then re-suspended in PBS at a concentration of 1×10^8 cells/mL. Normal BALB/c mice (10-12 week old, female, 20-23 g) were irradiated with 950 rad of γ radiation using IBL 437C irradiator (CIS bio international), and then 100 μL of the above-prepared T cell suspension of C57BL/6 mice were injected into the tail vein of the BALB/c mice. At 3 days after the cell injection, the mice were sacrificed, and the spleens were obtained. An erythrocyte-free single cell suspension was made from the obtained spleens in the same manner as described above, and donor T cells were separated from the spleen cell suspension using the autoMACS Pro Separator, thereby preparing secondary responder cells. Meanwhile, T cells were isolated from normal C57BL/6 mice in the same manner as described above, thereby preparing primary responder cells. Each of the primary and secondary responder cells were re-suspended in 1 mL of 1% FBS-containing PBS, and treated with 3 μM of carboxyfluorescein diacetate succinimidyl ester (CFSE, Invitrogen), and then allowed to react at room temperature for 4 minutes. To stop the reaction, cold-stored 5% FBS-containing PBS was added to the cell suspension, followed by washing. The washed cells were re-suspended in 10% FBS-containing RPMI medium at a concentration of 2×10^6/mL. The spleens of normal BALB/c mice (8-12 week old, female, 20±2 g) were aseptically collected. The erythrocyte-free spleen cells were prepared in the same manner as described above, and then re-suspended in 1 mL of PBS. 0.5 mg/mL of Mitomycin-C(Sigma) was added to the suspension at a concentration of 0.5 μg/mL, and the cells were incubated at 37° C. for 20 minutes, and then washed three times with an excessive amount of PBS. The washed cells were re-suspended in 10% FBS-containing RPMI medium at a concentration of 4×10^6 cells/mL, thereby preparing stimulator cells. The primary and secondary responder cells were mixed with the stimulator cells at a ratio of 1:1 separately, and 200 μL of each cell mixtures was dispensed into each well of a round bottom 96-well plate (Costar). Then, the cells were treated with 10 μL of Compound 229 diluted in RPMI medium at various concentrations, and incubated in a 5% CO2 incubator at 37° C. for 72 hours. In a vehicle control group, the cells were 10 μL of 0.2% DMSO-containing RPMI medium. The incubated cells were placed into 5-mL FACS tubes and washed with 1 mL of fluorescence activated cell sorting (FACS) buffer (1% FBS and 0.1% sodium azaide in PBS). The washed cells were re-suspended in 0.1 mL of FACS buffer, and then treated with 1 μg of mouse immunoglobulin G (IgG, e-Biosciences) in order to prevent the non-specific binding of antibody, followed by incubation at 4° C. for 15 minutes. Then, the cells were stained with 0.5 μg of phycoerythrin-conjugated anti-mouse H-2K^b mAb (e-Biosciences) and stained at 4° C. for 30 minutes. After the staining, the cells were washed twice with 1 mL of FACS buffer, re-suspended in 0.1 mL of FACS buffer, stained with 7-AAD at room temperature for 5 minutes. […]"}},
  "data": [
    {"compound": "Cc1cc(C)c(OCC(=O)N/N=C/c2ccc3cc[nH]c3c2)c(C2CCOC2)c1", "note": "(stereo not drawn) [Compound 229, (E)-N′-((1H-indol-6-yl)methylene)-2-(2,4-dimethyl-6-(tetrahydrofuran-3-yl)phenoxy)acetohydrazide]", "values": [
      {"measurement": "number of alloantigen-specific T cells in the spleen", "setting": "[1]; administered intraperitoneally every day for 5 days", "result": "significantly decreased"},
      {"measurement": "number of alloantigen-specific T cells in the spleen", "setting": "[1]; administered orally every day for 5 days", "result": "significantly decreased"},
      {"measurement": "proliferation of T cells that responded to the alloantigen in vivo", "setting": "[1]; dose of 50 mg/kg", "result": "completely inhibited"},
      {"measurement": "Apoptosis % (mean ± SD) Primary Response", "setting": "[2]; 0.125 μM, 7-AAD", "result": "28.42 ± 5.31", "unit": "%"},
      {"measurement": "Apoptosis % (mean ± SD) Secondary Response", "setting": "[2]; 0.125 μM, 7-AAD", "result": "41.40 ± 4.35", "unit": "%"},
      {"measurement": "increase of apoptosis compared to the vehicle control group, secondary response", "setting": "[2]; 0.25 μM or higher, 7-AAD", "result": "21-42%"},
      {"measurement": "Apoptosis % (mean ± SD) Primary Response", "setting": "[2]; 0.25 μM, 7-AAD", "result": "31.20 ± 4.26", "unit": "%"},
      {"measurement": "Apoptosis % (mean ± SD) Secondary Response", "setting": "[2]; 0.25 μM, 7-AAD", "result": "60.27 ± 6.10", "unit": "%"},
      {"measurement": "increase of apoptosis compared to the vehicle control group, primary response", "setting": "[2]; 0.5 μM or higher, 7-AAD", "result": "14-19%"},
      {"measurement": "ratio of T cells (CFSE low) that proliferated in response to the alloantigen, of the total T cells", "setting": "[2]; 0.5 μM or higher, vehicle control 50%", "result": "≤ 3", "unit": "%"},
      {"measurement": "Apoptosis % (mean ± SD) Primary Response", "setting": "[2]; 0.5 μM, 7-AAD", "result": "45.01 ± 5.48", "unit": "%"},
      {"measurement": "Apoptosis % (mean ± SD) Secondary Response", "setting": "[2]; 0.5 μM, 7-AAD", "result": "81.70 ± 5.62", "unit": "%"},
      {"measurement": "Apoptosis % (mean ± SD) Primary Response", "setting": "[2]; 1 μM, 7-AAD", "result": "50.37 ± 6.19", "unit": "%"},
      {"measurement": "Apoptosis % (mean ± SD) Secondary Response", "setting": "[2]; 1 μM, 7-AAD", "result": "80.37 ± 7.16", "unit": "%"},
      {"measurement": "proliferation of the alloantigen-specific T cells, secondary response", "setting": "[2]; T cells activated primarily by the alloantigen in vivo, reacted with the same antigen in vitro", "result": "effectively inhibited"}
    ]}
  ]
}
